Assay results published in patent US8455480B2, “Active agent combinations having insecticidal and acaricidal properties” (Bayer Cropscience AG, priority 2007, dated 2013).

Key:
[1] = tested on: Phaedon cochleariae larvae; test: Phaedon cochleariae larvae test (sprayed cabbage leaves); conditions: for Destruction in % after 2 d: single active substance
Myzus persicae = Myzus persicae test (spray on infested cabbage leaves); type: in vivo; conditions: single active substance
[2] = Phaedon cochleariae, in Brassica oleracea, 144 h, read-out: Destruction in % after 6 d

Structure (SMILES): C/C(=N\C#N)N(C)Cc1ccc(Cl)nc1 [Acetamiprid]
- Destruction in % after 2 d ([1]; 4 g/ha): 0%
- Destruction in % after 6 d (Myzus persicae; 0.032 g/ha): 0%

Structure (SMILES): CN/C(=N\[N+](=O)[O-])NCc1cnc(Cl)s1 [Clothianidin]
- pest or weed control at 4 g/ha [1, 2]: 33%
- Destruction in % after 1 d (Myzus persicae; 0.16 g/ha): 0%
- Destruction in % after 6 d (Myzus persicae; 0.16 g/ha): 10%

Structure (SMILES): O=C1C=C(N(CCF)Cc2ccc(Cl)nc2)CO1 [Compound (I-4), 4-{[(6-chloropyrid-3-yl)methyl](2-fluoroethyl)amino}furan-2(5H)-one]
- pest or weed control at 100 g/ha [1, 2]: 0%
- Destruction in % after 1 d (Myzus persicae; 4 g/ha): 50%
- Destruction in % after 6 d (Myzus persicae; 4 g/ha): 70%

Structure (SMILES): O=C1C=C(N(Cc2ccc(Cl)nc2)CC(F)F)CO1 [Compound (I-5), 4-{[(6-chloropyrid-3-yl)methyl](2,2-difluoroethyl)amino}furan-2(5H)-one]
- pest or weed control at 20 g/ha [1, 2]: 0%
- pest or weed control at 100 g/ha [1, 2]: 50%
- Destruction in % after 2 d ([1]; 100 g/ha): 33%
- Destruction in % after 6 d (Myzus persicae; 0.8 g/ha): 30%

Structure (SMILES): CN(Cc1cnc(Cl)c(F)c1)C1=CC(=O)OC1 [Compound (I-6), 4-{[(6-chloro-5-fluoropyrid-3-yl)methyl](methyl)amino}furan-2(5H)-one]
- pest or weed control at 100 g/ha [1, 2]: 0%
- Destruction in % after 2 d ([1]; 100 g/ha): 0%

Structure (SMILES): CN/C(=N\[N+](=O)[O-])NCC1CCOC1 (stereo not drawn) [Dinotefuran]
- pest or weed control at 4 g/ha [1, 2]: 0%

Structure (SMILES): O=[N+]([O-])/N=C1\NCCN1Cc1ccc(Cl)nc1 [Imidacloprid]
- pest or weed control at 4 g/ha [1, 2]: 0%
- Destruction in % after 1 d (Myzus persicae; 0.16 g/ha): 20%

Structure (SMILES): N#C/N=C1\SCCN1Cc1ccc(Cl)nc1 [Thiacloprid]
- pest or weed control at 4 g/ha [1, 2]: 17%
- Destruction in % after 2 d ([1]; 4 g/ha): 0%
- Destruction in % after 1 d (Myzus persicae; 0.16 g/ha): 20%
- Destruction in % after 6 d (Myzus persicae; 0.16 g/ha): 0%

Structure (SMILES): CN1COCN(Cc2cnc(Cl)s2)/C1=N/[N+](=O)[O-] [Thiamethoxam]
- pest or weed control at 4 g/ha [1, 2]: 17%
- Destruction in % after 6 d (Myzus persicae; 0.032 g/ha): 0%
- Destruction in % after 6 d (Myzus persicae; 0.16 g/ha): 30%
